Data reported in ChEMBL document CHEMBL6134844, “Development of Next-Generation Antimalarial Acridones with Radical Cure Potential” (J Med Chem, 2025).

How the values were obtained:
[1] = system: Plasmodium falciparum; assay: Antiplasmodial activity against asexual blood-stage (ABS) CQ-sensitive Plasmodium falciparum D6 infected in human erythrocytes assessed as reduction in fluorescence measured after 72 hrs by Malaria SYBR Green I-based Fluorescence (MSF) assay; type: functional, organism-based; conditions: D6, Erythrocyte
[2] = system: Plasmodium cynomolgi; assay: Antiplasmodial activity against hypnozoite Plasmodium cynomolgi B strain infected in Macaca mulatta hepatocytes incubated with sporozoite containing salivary gland homogenate obtained from dissected Anopheles dirus mosquitoes (infected with Plasmodium cynomolgi B strain) treatment started on day 4 post infection and continued daily for 4 days into fresh changed media until day 8 assessed as Liver stage (LS) activity by measuring prophylactic mode by immunofluorescent staining analysis; type: functional, organism-based; conditions: Hepatocyte
[3] = Toxicity in CF1 mouse infected with asexual blood-stage (ABS) Plasmodium yoelii MRA-428 assessed as hunching at 0.3 to 30 mg/kg, po treated 24 hrs post infection measured after 4 days; type: organism-based; conditions: in vivo, 96 h, dose 0.3-30 mg/kg, time 4 day
[4] = Toxicity in CF1 mouse infected with asexual blood-stage (ABS) Plasmodium yoelii MRA-428 assessed as lethargy at 0.3 to 30 mg/kg, po treated 24 hrs post infection measured after 4 days; type: organism-based; conditions: in vivo, 96 h, dose 0.3-30 mg/kg, time 4 day
[5] = system: Hepatocyte; assay: Cytotoxicity against Macaca mulatta hepatocytes assessed as cell viability measured after 48 hrs by MTT assay; type: toxicity, cell-based; conditions: rhesus monkey, 48 h
[6] = system: HepG2; assay: Cytotoxicity against human HepG2 cells assessed as cell viability measured after 48 hrs by MTT assay; type: functional, cell-based; conditions: HepG2, 48 h
[7] = system: Plasmodium cynomolgi; assay: Antiplasmodial activity against hypnozoite Plasmodium cynomolgi B strain infected in Macaca mulatta hepatocytes incubated with sporozoite containing salivary gland homogenate obtained from dissected Anopheles dirus mosquitoes (infected with Plasmodium cynomolgi B strain) treatment started on day 4 post infection and continued daily for 4 days into fresh changed media until day 8 assessed as Liver stage (LS) activity by measuring radical cure mode by immunofluorescent staining analysis; type: functional, organism-based; conditions: Hepatocyte
[8] = Selectivity index, ratio of CC50 for Macaca mulatta hepatocytes to IC50 for antiplasmodial activity against schizont Plasmodium cynomolgi B strain infected in Macaca mulatta hepatocytes incubated with sporozoite containing salivary gland homogenate obtained from dissected Anopheles dirus mosquitoes (infected with Plasmodium cynomolgi B strain) treatment started on day 4 post infection and continued daily for 4 days into fresh changed media until day 8 assessed as Liver stage (LS) activity by measuring prophylactic mode by immunofluorescent staining analysis; type: toxicity, cell-based; conditions: rhesus monkey, read-out: Selectivity Index
[9] = mouse, microsomes, 1 h
[10] = Toxicity in CF1 mouse infected with asexual blood-stage (ABS) Plasmodium yoelii MRA-428 assessed as hyperactivity at 0.3 to 30 mg/kg, po treated 24 hrs post infection measured after 4 days; type: organism-based; conditions: in vivo, 96 h, dose 0.3-30 mg/kg, time 4 day
[11] = system: Plasmodium falciparum; assay: Antiplasmodial activity against asexual blood-stage (ABS) MDR Plasmodium falciparum Dd2 infected in human erythrocytes assessed as reduction in fluorescence measured after 72 hrs by Malaria SYBR Green I-based Fluorescence (MSF) assay; type: functional, organism-based; conditions: Dd2, Erythrocyte
[12] = system: Plasmodium falciparum; assay: Antiplasmodial activity against asexual blood-stage (ABS) ATV-resistant clinical isolate Plasmodium falciparum Tm90-C2B infected in human erythrocytes assessed as reduction in fluorescence measured after 72 hrs by Malaria SYBR Green I-based Fluorescence (MSF) assay; type: functional, organism-based; conditions: Erythrocyte
[13] = system: Plasmodium cynomolgi; assay: Antiplasmodial activity against schizont Plasmodium cynomolgi B strain infected in Macaca mulatta hepatocytes incubated with sporozoite containing salivary gland homogenate obtained from dissected Anopheles dirus mosquitoes (infected with Plasmodium cynomolgi B strain) treatment started on day 4 post infection and continued daily for 4 days into fresh changed media until day 8 assessed as Liver stage (LS) activity by measuring prophylactic mode by immunofluorescent staining analysis; type: functional, organism-based; conditions: Hepatocyte
[14] = Toxicity in CF1 mouse infected with asexual blood-stage (ABS) Plasmodium yoelii MRA-428 assessed as weight loss at 0.3 to 30 mg/kg, po treated 24 hrs post infection measured after 4 days; type: organism-based; conditions: in vivo, 96 h, dose 0.3-30 mg/kg, time 4 day
[15] = Toxicity in CF1 mouse infected with asexual blood-stage (ABS) Plasmodium yoelii MRA-428 assessed as ruffled hair at 0.3 to 30 mg/kg, po treated 24 hrs post infection measured after 4 days; type: organism-based; conditions: in vivo, 96 h, dose 0.3-30 mg/kg, time 4 day
[16] = system: Plasmodium cynomolgi; assay: Antiplasmodial activity against schizont Plasmodium cynomolgi B strain infected in Macaca mulatta hepatocytes incubated with sporozoite containing salivary gland homogenate obtained from dissected Anopheles dirus mosquitoes (infected with Plasmodium cynomolgi B strain) treatment started on day 4 post infection and continued daily for 4 days into fresh changed media until day 8 assessed as Liver stage (LS) activity by measuring radical cure mode by immunofluorescent staining analysis; type: functional, organism-based; conditions: Hepatocyte
[17] = Selectivity index, ratio of CC50 for Macaca mulatta hepatocytes to IC50 for antiplasmodial activity against hypnozoite Plasmodium cynomolgi B strain infected in Macaca mulatta hepatocytes incubated with sporozoite containing salivary gland homogenate obtained from dissected Anopheles dirus mosquitoes (infected with Plasmodium cynomolgi B strain) treatment started on day 4 post infection and continued daily for 4 days into fresh changed media until day 8 assessed as Liver stage (LS) activity by measuring radical cure mode by immunofluorescent staining analysis; type: toxicity, cell-based; conditions: rhesus monkey, read-out: Selectivity Index
[18] = Selectivity index, ratio of CC50 for Macaca mulatta hepatocytes to IC50 for antiplasmodial activity against schizont Plasmodium cynomolgi B strain infected in Macaca mulatta hepatocytes incubated with sporozoite containing salivary gland homogenate obtained from dissected Anopheles dirus mosquitoes (infected with Plasmodium cynomolgi B strain) treatment started on day 4 post infection and continued daily for 4 days into fresh changed media until day 8 assessed as Liver stage (LS) activity by measuring radical cure mode by immunofluorescent staining analysis; type: toxicity, cell-based; conditions: rhesus monkey, read-out: Selectivity Index
[19] = Selectivity index, ratio of CC50 for Macaca mulatta hepatocytes to IC50 for antiplasmodial activity against hypnozoite Plasmodium cynomolgi B strain infected in Macaca mulatta hepatocytes incubated with sporozoite containing salivary gland homogenate obtained from dissected Anopheles dirus mosquitoes (infected with Plasmodium cynomolgi B strain) treatment started on day 4 post infection and continued daily for 4 days into fresh changed media until day 8 assessed as Liver stage (LS) activity by measuring prophylactic mode by immunofluorescent staining analysis; type: toxicity, cell-based; conditions: rhesus monkey, read-out: Selectivity Index

Compound | IC50 [1] [nM] | IC50 [2] [nM] | Activity [3] | Activity [4] | CC50 [5] [nM] | IC50 [6] [nM] | IC50 [7] [nM] | selectivity ratio at 96 h [8] | CLH [9] [µL/min/mg] | Activity [10] | IC50 [11] [nM] | IC50 [12] [nM] | IC50 [13] [nM] | Activity [14] | Activity [15] | IC50 [16] [nM] | selectivity ratio at 96 h [17] | selectivity ratio at 96 h [18] | selectivity ratio at 96 h [19]
O=c1c2c([nH]c3cc(OCc4ccc(OC(F)(F)F)cc4)ccc13)CCCC2 | 6.02 | > 20000 | Non-toxic | Non-toxic | > 20000 | > 200000 | > 20000 | > 5.52 | 31.9 | Non-toxic | 27.5 | 43.5 | 3620 | Non-toxic | Non-toxic | > 20000 | – | – | –
O=c1c2c([nH]c3cc(Nc4ccc(OC(F)(F)F)cc4)ccc13)CCCC2 | 0.232 | 1090 | Non-toxic | Non-toxic | 1810 | > 200000 | 1290 | 8.62 | 56 | Non-toxic | 1.85 | 2.79 | 210 | Non-toxic | Non-toxic | 1400 | 1.4 | 1.29 | 1.66
CCCCN(CCCC)CCCOc1ccc2c(=O)c3c([nH]c2c1)CCCC3 | 7.2 | > 20000 | Non-toxic | Non-toxic | > 20000 | > 200000 | > 20000 | > 4.06 | > 500 | Non-toxic | 39.4 | 59.7 | 4920 | Non-toxic | Non-toxic | > 20000 | – | – | –
O=c1c2c([nH]c3cc(Oc4ccccc4OC(F)(F)F)ccc13)CCCC2 | 0.023 | 7720 | Non-toxic | Non-toxic | > 20000 | > 200000 | > 20000 | > 31.2 | 72.1 | Non-toxic | 0.171 | 0.275 | 640 | Non-toxic | Non-toxic | > 20000 | – | – | > 2.59
CCCN(CCC)CCCOc1ccc2c(=O)c3c([nH]c2c1)CCCC3 | 108 | > 20000 | Non-toxic | Non-toxic | > 20000 | > 200000 | > 20000 | > 3.75 | > 500 | Non-toxic | 126 | 162 | 5330 | Non-toxic | Non-toxic | 14000 | – | > 1.43 | –
O=c1c2c([nH]c3cc(OC(F)(F)F)ccc13)CCCC2 | 52.4 | > 20000 | Non-toxic | Non-toxic | > 20000 | > 200000 | > 20000 | > 5.05 | 21.3 | Non-toxic | 84.7 | 58.6 | 3960 | Non-toxic | Non-toxic | > 20000 | – | – | –
O=c1c2c([nH]c3ccc(F)c(Oc4ccc(OC(F)(F)F)cc4)c13)CCCC2 | 1360 | 7320 | Non-toxic | Non-toxic | > 20000 | – | 14000 | > 2.7 | 31.1 | Non-toxic | > 2500 | > 2500 | 7400 | Non-toxic | Non-toxic | > 20000 | > 1.43 | – | > 2.73
CCCN(CCC)CCOc1ccc2c(=O)c3c([nH]c2c1)CCCC3 | 24.5 | > 20000 | Non-toxic | Non-toxic | > 20000 | > 200000 | > 20000 | > 2.03 | 492 | Non-toxic | 64.3 | 46.1 | 9830 | Non-toxic | Non-toxic | > 20000 | – | – | –
